# US11927585B2, “Solvent-based inks and coatings for food contact applications” (SUN CHEMICAL CORPORATION, priority 2020, dated 2024)
# Key:
# [1] = Specific migration limit (SML) from regulation or hazard assessment (TTC, VEGA QSAR, Cramer Class); conditions: for SML (or restriction): Source of SML or restriction: HA (internal hazard assessment); for SML or Restriction (mg substance/kg food): source HA (internal hazard assessment), self-derived SML, EU Cube model
# [2] = Worst-case calculation, Application 2 cheese packaging wrap exposure scenario; conditions: 100% migration, 2.0 g/m^2 dry film
# [3] = Worst-case calculation, Application 1 yoghurt pot lid exposure scenario; conditions: 100% migration, 2.0 g/m^2 dry film
# [4] = Worst-case calculation (100% migration), standard EU Cube exposure model; conditions: for Worst-case calculation as a percentage of SML (or restriction), EU Cube / Worst Case Calculation of migration in EU Cube model (as a percentage of SML): 100% migration; for Worst-case calculation as a percentage of SML (or restriction), EU Cube: 2.0 g/m^2 dry film; for Worst Case Calculation of migration in EU Cube model (as a percentage of SML): dry coat weight 2.0 g/m^2
structure (smiles),measurement,setting,value
"c1ccc(-c2ccc(-c3nc(-c4ccc(-c5ccccc5)cc4)nc(-c4ccc(-c5ccccc5)cc4)n3)cc2)cc1 [1,3,5-Triazine, 2,4,6-Tris([1,1′-Biphenyl]-4-Yl)-]",SML (or restriction),[1],5 mg substance/kg food
"CCCC1OC(CCC)OC(CCC)O1 (centres unmarked) [2,4,6-tripropyl-1,3,5-Trioxane]",SML (or restriction),[1],0.09 mg substance/kg food
O=C1NCCN1 [2-Imidazolidinone],SML (or restriction),[1],4.98 mg substance/kg food
O=Cc1ccc(Cl)cc1 [4-Chlorobenzaldehyde],SML (or restriction),[1],0.09 mg substance/kg food
O=Cc1ccc(-c2ccccc2)cc1 [4-Phenylbenzaldehyde],SML (or restriction),[1],0.09 mg substance/kg food
NC(=O)c1ccc(-c2ccccc2)cc1 [4-Phenylbenzamide],SML (or restriction),[1],0.09 mg substance/kg food
O=C(O)c1ccc(-c2ccccc2)cc1 [4-Phenylbenzoic Acid],SML (or restriction),[1],0.09 mg substance/kg food
N#Cc1ccc(-c2ccccc2)cc1 [4-Phenylbenzonitrile],SML (or restriction),[1],0.09 mg substance/kg food
"O=C1NC(=O)c2ccccc21 [0000085-41-6, Phthalimide]","Worst-case calculation as a percentage of SML (or restriction), Application 2",[2]; product SBDEV977,1382.4 percentage of SML (or restriction)
same,"Worst-case calculation as a percentage of SML (or restriction), Application 2",[2]; product SBDEV1287,1368.0 percentage of SML (or restriction)
same,"Worst-case calculation as a percentage of SML (or restriction), Application 1",[3]; product SBDEV977,377.6 percentage of SML (or restriction)
same,"Worst-case calculation as a percentage of SML (or restriction), Application 1",[3]; product SBDEV1287,373.7 percentage of SML (or restriction)
same,"Worst-case calculation as a percentage of SML (or restriction), EU Cube",[4]; product SBDEV977,960 percentage of SML (or restriction)
same,"Worst-case calculation as a percentage of SML (or restriction), EU Cube",[4]; product SBDEV1287,950 percentage of SML (or restriction)
same,Worst Case Calculation of migration in EU Cube model (as a percentage of SML),[4]; substance in ink SBDEV977 (Ex. 4A Yellow),960 percentage of SML
same,SML or Restriction (mg substance/kg food),[1],0.09 mg substance/kg food
"c1ccc2ccccc2c1 [0000091-20-3, Naphthalene]","Worst-case calculation as a percentage of SML (or restriction), Application 2",[2]; product SBDEV976,0.6 percentage of SML (or restriction)
same,"Worst-case calculation as a percentage of SML (or restriction), Application 2",[2]; product SBDEV1286,0.6 percentage of SML (or restriction)
same,"Worst-case calculation as a percentage of SML (or restriction), Application 1",[3]; product SBDEV976,0.2 percentage of SML (or restriction)
same,"Worst-case calculation as a percentage of SML (or restriction), Application 1",[3]; product SBDEV1286,0.2 percentage of SML (or restriction)
same,"Worst-case calculation as a percentage of SML (or restriction), EU Cube",[4]; product SBDEV976,0.4 percentage of SML (or restriction)
same,"Worst-case calculation as a percentage of SML (or restriction), EU Cube",[4]; product SBDEV1286,0.4 percentage of SML (or restriction)
same,Worst Case Calculation of migration in EU Cube model (as a percentage of SML),[4]; substance in ink SBDEV976 (Ex. 4C Cyan),0.4 percentage of SML
"OCCNCCO [0000111-42-2, Diethanolamine]",Worst Case Calculation of migration in EU Cube model: Basis for Safety outcome,"[4]; substance in ink SBDEV977 (Ex. 4A Yellow), volatile substance",Converter
"O=Cc1ccc(-c2ccccc2)cc1 [0003218-36-8, 4-Phenylbenzaldehyde]",SML or Restriction (mg substance/kg food),[1],0.09 mg substance/kg food
"CCCOC(CC)OCCC [0004744-11-0, Propane, 1,1-dipropoxy-]",SML or Restriction (mg substance/kg food),[1],0.09 mg substance/kg food
"O=C1NC(=O)C(=C2NC(=O)c3ccccc32)C(=O)N1 [0013481-50-0, 2,4,6(1H,3H,5H)-Pyrimidinetrione, 5-(2,3-Dihydro-3-Oxo-1H-Isoindol-1-Ylidene)-]",SML or Restriction (mg substance/kg food),[1],0.09 mg substance/kg food
CCCCCCCC/C=C\CCCCCCCC(=O)OCC [Ethyl Oleate],SML (or restriction),[1],0.09 mg substance/kg food
"CCCOC(CC)OCCC [Propane, 1,1-dipropoxy-]",SML (or restriction),[1],0.09 mg substance/kg food
